The record followed here is US8927750B2, “Acyloxy- and phosphoryloxy-butadiene-Fe(CO)3 complexes as enzyme-triggered co-releasing molecules” (priority 2011, dated 2015).

Read-outs that look alike come from different tables or passages of the source.

What all share (format): biochemical
Assay [1] deals with pig liver esterase (PLE). Briefly: Carbon monoxide release (Mb-assay) with pig liver esterase. The following applies: Mb solution, closed cell, 37° C. The procedure:
(§1) For this purpose, a solution of 30 mg Mb in 15 mL buffer was degassed by bubbling with argon for 10 min, then reduced by addition of an excess of Na2S2O4 and degassed again for 10 min. The concentration was determined by measuring a 1:10 diluted solution and using the following equation: A=ελ·c·l with ε408 nm=188000 L mol^−1 cm^−1
(§2) A stock solution of a complex in DMSO and a solution of the esterase in phosphate buffer were added under argon before the cell was closed to prevent re-oxidation of the Fe(II) in the Mb solution to Fe(III). […] Equivalents of the esterase are given relative to the inventive complex.
The Mb solution (c=76 μM) was reduced by the addition of 23 mg (132.1 μmol, 116 eq) of Na2S2O4 in 0.1 mL buffer. 1.7 mg (6.2 μmol) of rac-96 were dissolved in 160 μL of DMSO to provide a 0.038 M solution. For the measurement, 6 μL (2.29·10^−7 mol, 1.3 eq) of this solution were added to 2.3 mL of the Mb solution (1.75·10^−7 mol, 1 eq) and 70 μL (approximately 0.01 eq) of a solution of 0.7 mg pig liver esterase (PLE) in 240 μL buffer.
The Mb solution (c=56 μM) was reduced by the addition of 22 mg (126.4 μmol, 151 eq) of Na2S2O4 in 0.1 mL buffer. 1.1 mg (3.0 μmol) of rac-13 were dissolved in 100 μL of DMSO to provide a 0.030 M solution. For the measurement, 3 μL (9.06·10^−8 mol, 0.7 eq) of this solution were added to 2.3 mL of the Mb solution (1.28·10^−7 mol, 1 eq) and 70 μL (approximately 0.01 eq) of a solution of 0.6 mg PLE in 240 μL buffer.

Assay [2] has as its system horse skeletal myoglobin (Mb). As to the kind of experiment: Carbon monoxide release (Mb-assay) without esterase/lipase. The settings on record: for carbon monoxide release without esterase/lipase: Mb solution, closed cell, 37° C.; for carbon monoxide release without esterase/lipase after exposure to air: cell opened to air for 2 s. As to the method: as §1, §2
The Mb solution (c=93 μM) was reduced by the addition of 22 mg (126.4 μmol, 91 eq) of Na2S2O4 in 0.1 mL buffer. 0.7 mg (2.8 μmol) of 2-methoxycyclohexa-1,3-dienetricarbonyliron (0) were dissolved in 70 μL of DMSO to provide a 0.039 M solution. For the measurement, 6 μL (2.39·10^−7 mol, 1.3 eq) of this solution were added to 2.3 mL of the Mb solution (2.14·10^−7 mol, 1 eq).

In assay [3] the test system is pig liver esterase (PLE). Also noted: key to cleaved by PLE: “+” indicates kinetic racemic resolution; “−” means that no reaction took place.
Assay [4] has as its system lipase from Candida rugosa. Set-up: key to cleaved by lipase from Candida rugosa: “+” indicates kinetic racemic resolution; “−” means that no reaction took place.
For assay [5], the system named is lipase from Candida rugosa. The settings on record: open tube, 10 mg complex, 20 mg lipase.
Assay [6] deals with lipase from Candida rugosa. Briefly: Carbon monoxide release (Mb-assay) with lipase from Candida rugosa. The following applies: for carbon monoxide release with lipase from Candida rugosa: Mb solution, closed cell, 37° C. The procedure: as §1, §2
The Mb solution (c=88 μM) was reduced by the addition of 22 mg (126.4 μmol, 95 eq) of Na2S2O4 in 0.1 mL buffer. 3.4 mg (12 μmol) of rac-86 were dissolved in 300 μL of DMSO to provide a 0.041 M solution. For the measurement, 6 μL (2.45·10^−7 mol, 1.2 eq) of this solution were added to 2.3 mL of the Mb solution (2.03·10^−7 mol, 1 eq) and 70 μL (approximately 0.09 eq) of a solution of 5 mg lipase from Candida rugosa in 240 μL buffer.
The Mb solution (c=95 μM) was reduced by the addition of 23 mg (132.1 μmol, 92 eq) of Na2S2O4 in 0.1 mL buffer. 1.8 mg (5.6 μmol) of rac-87 were dissolved in 180 μL of DMSO to provide a 0.031 M solution. For the measurement, 12 μL (3.74·10^−7 mol, […]) of this solution were added to 2.3 mL of the Mb solution (2.19·10^−7 mol, 1 eq) and 140 μL (approximately 0.17 eq) of a solution of 15 mg lipase from Candida rugosa in 500 μL buffer.

Setting [7] is: time 0 min, 12 mg complex, 15 mg enzyme.
[8] abbreviates: time 110 min, 12 mg complex, 15 mg enzyme.

On to `CC(=O)OC1=CC(C)(C)CC(OC(C)=O)=C1.[C-]#[O+].[C-]#[O+].[C-]#[O+].[Fe]` [rac-13, reference compound], for which, in assay [1], the “carbon monoxide release with pig liver esterase” value is on record as “carbon monoxide release”. In addition, the “carbon monoxide release without esterase/lipase” value in assay [2] is on record as “no significant amount of carbon monoxide was released”. For the same compound, the “cleaved by PLE” value in assay [3] (General Procedure I) was “+”. Further, the “conversion (%)” value is recorded as 3% in assay [3] (time 15 min, 13 mg complex, 0.8 mg enzyme); 12% in assay [3] (time 30 min, 13 mg complex, 0.8 mg enzyme); 54% in assay [3] (time 45 min, 13 mg complex, 0.8 mg enzyme); 64% in assay [3] (time 150 min, 13 mg complex, 0.8 mg enzyme); 80% in assay [3] (time 210 min, 13 mg complex, 0.8 mg enzyme). Further, the “cleaved by lipase from Candida rugosa” value in assay [4] (General Procedure I) is reported as “−”.

Take `CC(=O)OC1=CC=CCC1.[C-]#[O+].[C-]#[O+].[C-]#[O+].[Fe]` [rac-96, (RS)-[θ^4-Cyclohexa-1,3-dien-1-yl-tricarbonyliron(0)]acetate]: the “carbon monoxide release with pig liver esterase” value in assay [1] was “carbon monoxide release”. Besides, the “carbon monoxide release without esterase/lipase” value in assay [2] is on record as “no carbon monoxide release”. In addition, in assay [3] (General Procedure I), the “cleaved by PLE” value is “+”. The “conversion (%)” value in assay [3] (time 0 min, 10 mg complex, 1 mg enzyme) is listed as 0%; in assay [3] (time 120 min, 10 mg complex, 1 mg enzyme), 28%; in assay [3] (time 180 min, 10 mg complex, 1 mg enzyme), 45%; in assay [3] (time 300 min, 10 mg complex, 1 mg enzyme) it was 52%; in assay [3] (time 420 min, 10 mg complex, 1 mg enzyme), 77%; in assay [3] (time 540 min, 10 mg complex, 1 mg enzyme) it was 84%. The “conversion (%)” value is 89% in assay [3] (time 660 min, 10 mg complex, 1 mg enzyme); 0/0% in assay [4] (setting [7]); 43% in assay [4] (time 15 min, 12 mg complex, 15 mg enzyme); 57% in assay [4] (time 30 min, 12 mg complex, 15 mg enzyme); 76% in assay [4] (time 60 min, 12 mg complex, 15 mg enzyme); 83% in assay [4] (setting [8]). The “conversion (%)” value in assay [5] (time 0 min) is 0/0%; in assay [5] (time 15 min), 65%; in assay [5] (time 30 min) it was 77%; in assay [5] (time 60 min) it was 79%; in assay [5] (time 110 min) it was 81%. The “cleaved by lipase from Candida rugosa” value in assay [4] (General Procedure I) was “+”.

In the case of `CC(C)(C)C(=O)OC1=CCCC=C1.[C-]#[O+].[C-]#[O+].[C-]#[O+].[Fe]` [rac-87, (RS)-[η^4-Cyclohexa-1,5-dien-1-yl-tricarbonyliron(0)] pivalate], the “carbon monoxide release with lipase from Candida rugosa” value in assay [6] is “no carbon monoxide release”. Further, in assay [6] (cell opened to air for 2 s after 360 min, conversion of Mb-O2 to MbCO), the “carbon monoxide release with lipase from Candida rugosa after exposure to air” value is listed as “carbon monoxide release”. In addition, the “carbon monoxide release without esterase/lipase after exposure to air” value in assay [2] is listed as “no carbon monoxide was released”. In addition, in assay [3] (General Procedure I), the “cleaved by PLE” value is “−”. Moreover, the “cleaved by lipase from Candida rugosa” value in assay [4] (General Procedure I) was “+”. Besides, the “conversion (%)” value in assay [4] (time 0 min, 8 mg enzyme) is listed as 0/0%; in assay [4] (setting [7]), 0/0%; in assay [4] (time 30 min, 8 mg enzyme) it was 4%; in assay [4] (time 60 min, 8 mg enzyme), 6%; in assay [4] (time 110 min, 8 mg enzyme), 8%; in assay [4] (setting [8]) it was 47%. For the same compound, the “conversion (%)” value in assay [4] (time 240 min, 8 mg enzyme) is listed as 12%; in assay [4] (time 240 min, 12 mg complex, 15 mg enzyme), 60%; in assay [4] (time 24 h, 8 mg enzyme) it was 47%; in assay [4] (time 24 h, 12 mg complex, 15 mg enzyme) it was 73%.

Take `COC1=CCCC=C1.O=[C]=[Fe](=[C]=O)=[C]=O` [2-methoxycyclohexa-1,3-dienetricarbonyliron (0), reference compound]: in assay [2], the “carbon monoxide release without esterase/lipase” value was “no carbon monoxide release” and the “carbon monoxide release without esterase/lipase after exposure to air” value is “no carbon monoxide was released”. Further, in assay [3] (General Procedure I), the “cleaved by PLE” value is given as “−” and the “reaction with PLE” value is listed as “did not react”. Moreover, in assay [4] (General Procedure I), the “cleaved by lipase from Candida rugosa” value is given as “−” and the “reaction with lipase from Candida rugosa” value is “did not react”.

`CC(=O)OC1=CCCC=C1.[C-]#[O+].[C-]#[O+].[C-]#[O+].[Fe]` [rac-86, (RS)-[η^4-Cyclohexa-1,5-dien-1-yl-tricarbonyliron(0)]acetate]: the “carbon monoxide release with lipase from Candida rugosa” value in assay [6] is “carbon monoxide release”. For the same compound, the “carbon monoxide release with pig liver esterase” value in assay [1] is reported as “carbon monoxide release”. The “carbon monoxide release without esterase/lipase” value in assay [2] was “no carbon monoxide was released”. The “cleaved by PLE” value in assay [3] (General Procedure I) is listed as “−”. The “cleaved by lipase from Candida rugosa” value in assay [4] (General Procedure I) is on record as “+”. Also, the “conversion (%)” value was 0/0% in assay [4] (time 0 min, 8 mg enzyme); 32% in assay [4] (time 15 min, 8 mg enzyme); 68% in assay [4] (time 30 min, 8 mg enzyme); 82% in assay [4] (time 60 min, 8 mg enzyme); 93% in assay [4] (time 110 min, 8 mg enzyme); 98% in assay [4] (time 240 min, 8 mg enzyme). Further, the “conversion (%)” value in assay [5] (time 0 min) is on record as 0/0%; in assay [5] (time 15 min), 60%; in assay [5] (time 30 min), 79%; in assay [5] (time 60 min), 85%; in assay [5] (time 110 min), 97%.
